The text below walks through data of PubChem BioAssay AID463206 (Broad Institute, 2010).

Calls of active or inactive are those of the source.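 The calls were made as follows: active = caspase luminescence falls with dose and the half-maximal concentration AC50 from the fitted curve is at or below a set limit; inconclusive = flat fit at 30 to 70% signal loss, or invalid fit; inactive = AC50 above the limit, or signal rises instead.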

As usually defined, the AC50 is the concentration giving half of the maximal activity seen.

The assay relates to INS-1E cytokine-induced caspase-3/7, Caspase-Glo luminescence, 48 h. Description: inhibitors of cytokine-induced caspase-3/7 activity, dose response, orthogonal assay for beta-cell apoptosis protection project, INS-1E rat cells, luminescence (AID 463206).
Regarding `CCOc1cccc(/C=N/NC(=O)c2cc(C3CC3)[nH]n2)c1O`, the AC50 was > 26 µM (inactive).

With `On1onc2c3cc(-c4ccccc4)nc3ccc21`, the AC50 is > 26 µM (inactive).

For `CCc1ccc(S(=O)(=O)Nc2ccc(O)c3ccccc23)cc1`, the AC50 was > 26 µM (inactive).

With `Nc1ccc(N2CCCCC2)cc1N1CCCCC1`, the AC50 is > 26 µM (inactive).

`C=C1C(=O)C=C2CN(C(=O)c3ccccc3)[C@@](Cc3ccc(F)cc3)(C(=O)OC)[C@@H]12`: the AC50 was > 26 µM (inactive).

Regarding `CCCCSc1nc2sc3c(c2c(=O)n1-c1ccc(C)cc1)CCN(C)C3`, the AC50 is > 26 µM (inactive).

With `COCCNc1nc2c(c(=O)n(C)c(=O)n2C)n1Cc1cccc(C(F)(F)F)c1`, the AC50 is > 26 µM (inactive).

For the compound `COc1cc2c(cc1OC)-c1c(OC)c(OC)c(OC)c3ccnc(c13)C2=O`, the concentration at half-maximal activity (AC50) was 7.97 µM.

With `Cc1cccc2sc(NNC(=O)c3ccc(S(=O)(=O)N4CCCC(C)C4)cc3)nc12` (stereo unspecified), the AC50 is > 26 µM (inactive).

Take `O=[N+]([O-])c1cccc2c(N3CCCC3)ccnc12`: the AC50 was > 26 µM (inactive).

`Cc1cc(N2CCOCC2)n2ncc(-c3ccccc3)c2n1`: the AC50 was > 26 µM (inactive).

As for `Cc1ccc(NC2=CC(=O)C(=O)c3ccccc32)cc1`, the AC50 was > 26 µM (inactive).

Turning to `COc1ccc(NC(=O)c2c(Nc3ccccc3)sc(C(=O)c3ccc(F)cc3)c2N)cc1`, the AC50 was > 26 µM (inactive).

Regarding `CN(C)S(=O)(=O)c1ccc(Oc2ccc(S(=O)(=O)N(C)C)cc2)cc1`, the AC50 was > 26 µM (inactive).

As for `O=C(NCCOCCOCCNC(=O)c1cccnc1)c1cccnc1`, the AC50 is > 26 µM (inactive).

On to `C#CCOCCOCCOCCNc1nc(N2CCN(C(=O)CCCCCCCCCCNC(=O)[C@H](CCCCN)n3cc(CCO)nn3)CC2)nc(N2CCN(C(=O)CCCCCCCCCCNC(=O)[C@H](CCCCN)n3cc(C[C@@H](C)CC)nn3)CC2)n1`, for which the AC50 was > 26 µM (inactive).

Turning to `Cc1ccc(-c2cc3cccc[n+]3cc2-c2ccc(C)cc2)cc1`, the AC50 was > 26 µM (inactive).

For the compound `O=C(Nc1ccc(Cl)cc1)c1nc[nH]c1C(=O)NCCN(CCNC(=O)c1[nH]cnc1C(=O)Nc1ccc(Cl)cc1)CCNC(=O)c1[nH]cnc1C(=O)Nc1ccc(Cl)cc1`, the AC50 is > 26 µM (inactive).

`O=C(NCc1cccnc1)/C(=C/c1ccc(-c2cccc(Cl)c2)o1)S(=O)(=O)c1ccccc1`: the AC50 was > 26 µM (inactive).

Take `O=C(N/N=C/c1cc([N+](=O)[O-])ccc1O)c1cc(-c2ccccc2)nc2ccccc12`: the AC50 is > 26 µM (inactive).

As to `CCCc1cc(=O)n2[nH]cc(-c3ccc(Cl)cc3)c2n1`, the AC50 was > 26 µM (inactive).

In the case of `O=C(NCc1cccnc1)C(=O)Nc1nc(C23CC4CC(CC(C4)C2)C3)cs1`, the AC50 is > 26 µM (inactive).

As to `CCOc1ccc(S(=O)(=O)N2CCCCC2)cc1NC(=O)CN1CCCC1c1cccs1` (stereo unspecified), the AC50 was > 26 µM (inactive).

Take `COC1=C(Nc2ccccc2)C(=O)c2ccccc2C1=O`: the AC50 was > 26 µM (inactive).

For `COc1ccc(S(=O)(=O)Nc2ccc(O)c3ccccc23)cc1`, the AC50 was > 26 µM (inactive).

Take `CCOc1cc(/C=C2\COc3ccccc3C2=O)cc(Br)c1OCC(=O)N(C)C`: the AC50 is > 26 µM (inactive).

On to `COc1cc(OC)c(NC2=CC(=O)C(=O)c3ccccc32)cc1Cl`, for which the AC50 is > 26 µM (inactive).

Consider `O=S(=O)(Nc1nc2ccccc2s1)c1ccc(Cl)s1`, for which the AC50 was > 26 µM (inactive).

For the compound `COc1cccc(/C=N/Nc2ccnc(=O)[nH]2)c1O`, the AC50 is > 26 µM (inactive).

Regarding `COc1ccc(CC(=O)Nc2cccc(-c3nnc(-c4cccc(C)c4)o3)c2)cc1OC`, the AC50 is > 26 µM (inactive).

Take `COc1ccc(NS(=O)(=O)c2ccc(N3CCCCC3)c(N)c2)cc1`: the AC50 is > 26 µM (inactive).

For `COc1ccc(C(=O)NCC(=O)N/N=C/c2ccc([N+](=O)[O-])s2)cc1OC`, the AC50 was > 26 µM (inactive).

For the compound `C=C1C(=O)O[C@@H]2C[C@@H](C)[C@@H]3C=CC(=O)[C@@]3(C)[C@@H](OC(=O)CC(=O)O[C@H]3[C@@H]4C(=C)C(=O)O[C@@H]4C[C@@H](C)[C@@H]4C=CC(=O)[C@]43C)[C@H]12`, the AC50 was > 26 µM (inactive).

On to `NC(=O)c1ccc(N2CCN(S(=O)(=O)c3cccs3)CC2)c([N+](=O)[O-])c1`, for which the AC50 is > 26 µM (inactive).

In the case of `COc1ccc(N/N=C(/N=Nc2nc(C)cc(=O)[nH]2)c2ccccc2)cc1`, the AC50 was > 26 µM (inactive).

In the case of `CCCCCCC[N+](CC)(CC)CCCCc1ccc(Cl)cc1`, the AC50 was > 26 µM (inactive).

On to `CN(C)CC(C(=O)c1ccccc1)c1ccccc1` (stereo unspecified), for which the AC50 is > 26 µM (inactive).

With `C=CCSc1nsc(NC(=O)Nc2ccc(F)cc2)n1`, the AC50 is > 26 µM (inactive).

`COc1cccc(C(=O)Oc2c(CN3CCOCC3)cc(Cl)c3cccnc23)c1`: the AC50 was > 26 µM (inactive).

`O=C(c1ccccc1)C(CCC(CN1CCOCC1)C(=O)c1ccccc1)CN1CCOCC1` (stereo unspecified): the AC50 is > 26 µM (inactive).

Turning to `CCC(CO)Oc1cc(NCc2ccc(C)c(C)c2)c2ncn(C(C)C)c2c1` (stereo unspecified), the AC50 was > 26 µM (inactive).

As to `Cc1cc(N/N=C/c2ccc(F)cc2)nc(-n2nc(C)cc2C)n1`, the AC50 is > 26 µM (inactive).

As for `CC(=O)c1cn(CCOc2cc(C)ccc2C)c2ccccc12`, the AC50 is > 26 µM (inactive).

Consider `COc1ccc(CCNc2ncnc3sc(C)cc23)cc1OC`, for which the AC50 is > 26 µM (inactive).

As for `Cc1cc(C)n(-c2nc(NCCCO)c3c4c(sc3n2)CCCC4)n1`, the AC50 was > 26 µM (inactive).

For the compound `CN(C)S(=O)(=O)c1cccc(N=C2NN=C(c3ccccc3)CS2)c1`, the AC50 is > 26 µM (inactive).

With `O=C(N/N=C/c1cc(Br)ccc1O)C(=O)Nc1ccccc1OC(F)(F)C(F)F`, the AC50 was > 26 µM (inactive).

In the case of `CCn1c(C)nc2cc(-c3nnc(-c4c(-c5ccccc5)noc4C)o3)ccc21`, the AC50 was > 26 µM (inactive).

Take `Cc1ccc(S(=O)(=O)N2CCCCC2c2cccnc2)c(C)c1C` (stereo unspecified): the AC50 was > 26 µM (inactive).

`COc1ccc(C(=O)NC(=S)NNC(=O)c2cnccn2)cc1`: the AC50 was > 26 µM (inactive).

`O=S(=O)(c1cc(F)ccc1F)N1CCN(c2ncnc3ccccc23)CC1`: the AC50 was > 26 µM (inactive).

`CCCc1sc(N/N=C/c2ccccn2)nc1-c1ccc(Br)cc1`: the AC50 was > 26 µM (inactive).

Consider `O=C(N/N=C/c1cc([N+](=O)[O-])ccc1O)c1cccc2cc[nH]c12`, for which the AC50 was > 26 µM (inactive).

On to `COc1cc(OC)nc(-n2ncc(Br)c(Br)c2=O)n1`, for which the AC50 is > 26 µM (inactive).

`O=C(Nc1ccc(OC(F)F)cc1)Nc1cccc(C(F)(F)F)c1`: the AC50 is > 26 µM (inactive).

For the compound `COc1cc(Cl)c(NC2=CC(=O)C(=O)c3ccccc32)c(OC)c1`, the AC50 was > 26 µM (inactive).

In the case of `COc1ccc(-c2nc3ccc(C)cn3c2NCc2ccccc2)cc1SC1CCCCC1`, the AC50 is > 26 µM (inactive).

`CC(C)(C)c1cc(NCCCn2ccnc2)n2ncc(-c3ccccc3)c2n1`: the AC50 is > 26 µM (inactive).

For `Cc1ccc(Cl)cc1NC1=C/C(=N\S(=O)(=O)c2cccs2)c2ccccc2C1=O`, the AC50 was > 26 µM (inactive).

As to `C(C#CCCCCCCCCC[n+]1ccccc1)#CCCCCCCCCC[n+]1ccccc1`, the AC50 is > 26 µM (inactive).

`COc1ccc(CNC[C@@H](CCCCN(C)Cc2ccc(OC)cc2)N2C[C@H](c3ccccc3)N(CCc3ccc(Cl)c(Cl)c3)C(=O)C2=O)cc1`: the AC50 is > 26 µM (inactive).

With `COc1ccc(C(=O)NC(=S)NNC(=O)c2cnccn2)cc1OC`, the AC50 was > 26 µM (inactive).

For the compound `CC1(C)CC(N2CCN(c3ccccc3)CC2)=CC(=[N+]2CCCC2)C1`, the AC50 was > 26 µM (inactive).

On to `Cc1ccc(N(CC(=O)Nc2cc(C)cc(C)c2)S(=O)(=O)c2c(C)noc2C)cc1`, for which the AC50 is > 26 µM (inactive).

Consider `Cc1ccc(S(=O)(=O)N2CCN(c3ncnc4sccc34)CC2)cc1`, for which the AC50 is > 26 µM (inactive).

As for `Cc1ccc(C(=O)C[n+]2cc(-c3ccc(C)cc3)n3c2CCCCC3)cc1`, the AC50 is > 26 µM (inactive).

In the case of `Cc1cc(N2CCOCC2)nc(N)n1`, the AC50 was > 26 µM (inactive).

For the compound `COc1cccc(/C=N/NC(=O)c2ccc(-c3ccccc3)cc2)c1O`, the AC50 was > 26 µM (inactive).

For `O=C(c1cc(COc2ccc3ncccc3c2)on1)N1CCCCCC1`, the AC50 was > 26 µM (inactive).

As for `CCCC(=O)NC(c1ccc(OC)c(OC)c1)c1cc(Cl)c2cccnc2c1O` (stereo unspecified), the AC50 was > 26 µM (inactive).

Consider `C/C(=N\NC(=O)c1ccc(NS(=O)(=O)c2cccs2)cc1)c1ccccn1`, for which the AC50 is > 12 µM (inactive).

Take `Cc1cc(N2CCN(C)CC2)ccc1NC(=O)c1c2c(nc3ccccc13)CCN(Cc1ccccc1)C2`: the AC50 is 14.7 µM.

`Cc1ccc(NC(=O)c2c(-c3c(F)cccc3Cl)noc2C)cc1F`: the AC50 is > 12 µM (inactive).

As for `Cc1ccccc1OCc1n(CC(=O)OC2CC(C)CCC2C(C)C)c2ccccc2[n+]1C` (stereo unspecified), the AC50 is > 26 µM (inactive).

Regarding `COc1ccc(-c2c[n+]3c(n2-c2ccc(C)cc2)CCCCC3)cc1`, the AC50 was > 26 µM (inactive).

Turning to `FC(F)(F)c1nnc(-c2ccccc2)nc1Sc1ccc(Cl)cc1`, the AC50 is > 26 µM (inactive).
